The source of these data is patent US20190008957A1, “COMBINATION THERAPIES INCLUDING INHIBITORS OF THE EXTRACELLULAR DOMAIN OF E-CADHERIN” (The Research Foundation for The State of New York, priority 2012, published 2019).

Series [1] concerns skin (PAM212, CC4A, SCC12b, SCC13) and oropharyngeal (FADU) cells. The series is described as follows: Transwell migration of SCC cells. It is filed as cell-based. On the procedure:
(§1) For BrdU staining, cells were incubated with 10 μM BrdU for 2 h prior to fixation and processed for immunofluorescence microscopy as previously described (Brouxhon et al., Cancer Res. 67:7654-64, 2007). For BrdU analyses, cells were counted from 6 low-power fields (×100) per section. BrdU incorporation was also analyzed by a cell proliferation ELISA 5-bromo-2′-deoxyuridine (BrdU) (colorimetric) kit (Roche, Stockholm, Sweden), according to the manufacturer's instructions. Migration and invasion of cells were measured using 8.0 μm pore BD BioCoat Control Insert 24-well plates (no. 354578) and Matrigel Invasion Chamber 24-well Plates (no. 354480), respectively (BD Bioscience). Cells were collected, washed, and 2×10^5 cells were plated in 0.4% FBS medium in the top chamber, with 0-20 μg/mL of rhEcad/Fc in the bottom chamber. After 22 h, cells on the top were removed using a cotton swab. Migrated or invaded cells on the lower surface were fixed with methanol, stained with 0.5% crystal violet, examined by bright field microscopy and photographed. Migration or invasion was quantitated by counting migrated or invaded cells in at least ten random high-power fields per insert and expressed as averages. Results are presented as fold change of the number of migrated/invaded cells to the untreated controls in triplicate experiments.

Series [2] relates to skin (SCC12b, SCC13, PAM212 and CC4A) and the head & neck FADU cell line. The series is described as follows: Matrigel invasion of SCC cells. It is filed as cell-based.
The subject of series [3] is HER2 overexpressing BT474 cells. The settings on record: cited from earlier work.
The test system of series [4] is oropharyngeal FADU and skin SCC (PAM212, CC4A, SCC13 and SCC12b) cell lines. The series is described as follows: Proliferation in oropharyngeal and skin SCC cell lines. It is filed as cell-based. The protocol: as §1
The subject of series [5] is HER1, HER2, IGF-1R. The series is described as follows: Western blot of receptor phosphorylation in skin and oropharyngeal SCC cell lines. The series is classed as cell-based. The settings on record: PAM212 cells. For orientation: In western blotting, separated proteins are transferred to a membrane and probed.
Procedure: (§3) After brief sonication, lysates were cleared by centrifugation at 4° C. […] After transfer to nitrocellulose membrane and blocking with 1% BSA, samples were probed with primary antibodies. Western blot images were captured using HP Scanjet G4050 and analyzed relative to G3PDH or actin using NIH Scion Image.
(§4) Antibodies against total HER1 and HER 4 and phosphorylated HER1-4, pPI3K, pAkt, pmTOR, p4E-BP1, pRaptor and pp70S6K obtained from Cell Signaling Technologies. Monoclonal antibodies to HER3 and HER4 were obtained from Thermo Scientific. Polyclonal antibody to the extracellular domain of E-cadherin and monoclonal antibody to α-actin were obtained from Santa Cruz Biotechnology. Monoclonal antibody to the extracellular domain of E-cadherin (DECMA-1) and to His Tag were obtained from Sigma and Abcam, respectively. Monoclonal antibody to G3PDH, ubiquitin and rat IgG1 were obtained from Ambion, Zymed and Southern Biotechnology, respectively.
Series [6] has as its system MCF-7, SKBR3 and MDA-MB-231 breast cancer cell lines. Kind of series: BrdU proliferation in breast cancer cell lines. It is filed as cell-based, human. On the procedure:
as §1

The test system of series [7] is MEK1/2, ERK1/2, PI3K, Akt, mTOR, p70S6K, 4EBP1. The series is described as follows: Western blot of downstream MAPK-PI3K/Akt/mTOR signaling in SCC cell lines. It is filed as cell-based.
Procedure: as §3, §4
In series [8] the test system is survivin. As to conditions: HER2-positive tumors from patients; cited from earlier work.
Series [9] relates to MMP-2 and MMP-9. The series is described as follows: MMP-9 ELISA and gelatin zymography of conditioned media. It is filed as cell-based, mouse. As to conditions: PAM212 cells; inhibitors either alone or in combination. The protocol:
Conditioned media from control or sEcad treated cells were concentrated 10-fold using Centricon devices (Millipore; Bedford, Mass.) according to the manufacturer's instructions and applied to SDS-PAGE gels containing gelatin (0.1% w/v). Gels were washed twice in renaturing buffer (Invitrogen) and incubated at 37° C. for 24 h in developing buffer (Invitrogen). Gels were stained with Coomassie blue and destained with methanol:acetic acid (50:10). Zymogram is representative of triplicate experiments.
Conditioned media from human and mouse cells were analyzed for MMP-9 using human and mouse […] Quantikine ELISA Kits and mouse MMP-9 ELISA kit (R&D Systems, Minneapolis, Minn.), according to the manufacturer's specifications, respectively. For measuring mouse MMP-9, serum-free medium was added to cell cultures and cells were exposed to increasing concentrations of sEcad (rmEcad/Fc; R&D Systems) for 24 hours. The culture media were collected and concentrated using Centrifugal Ultra Filters (Millipore, Billerica, Mass.) and MMP-9 levels were measured by ELISA. Each experiment was performed in triplicate.

In series [10] the test system is breast (MCF-7, SKBR3) cells. The series is described as follows: Transwell migration of breast cancer cells. It is filed as cell-based, human. The settings on record: MCF-7 cells, 24 h, equimolar concentrations. On the procedure: as §1, with “After 22 h, cells on the top were removed using a cotton swab.” left out
In series [11] the test system is HER1-4. The series is described as follows: Immunoprecipitation of sEcad with HER receptors in breast cancer cells. It is filed as binding, human. An excerpt: (§2) The association of sEcad with these RTK was also confirmed by in vitro studies. Specifically, in cell culture systems, extracts from sEcad (rhEcad/Fc:His tagged) treated E-cadherin positive MCF-7 and E-cadherin negative SKBR3 and MDA-MB-231 breast cancer cells were immunoprecipitated with HER1-4-specific antibodies and analyzed by western blotting with a His-tagged-specific antibody. Here, we detected HER1-4-sEcad, HER1-2-sEcad and HER1-sEcad interactions in MCF, SKBR3 and MDA-MB-231 breast cancer cells, respectively. […] Because ligand binding to the HER family of receptors induces the formation of homo- and heterodimers, resulting in phosphorylation on specific tyrosine residues within the cytoplasmic domain (Yarden and Siliwkowski, Nature Reviews. 2:127-137, 2001), we next used western blot assays to examine whether sEcad promotes HER phosphorylation and downstream signaling.
Immunoprecipitation assays were carried out by harvesting tissues or cells with immunoprecipitation lysis buffer (20 mM Tris-HCl, pH 7.5; 137 mM NaCl; 100 mM NaF; 10% glycerol (vol/vol); 1% (vol/vol) Nonidet P-40; 1 mM PMSF and protease inhibitor cocktail (Sigma)). After brief sonication, lysates were cleared by centrifugation at 4° C. […] The immunocomplexes were washed three times, boiled in sample buffer (60 mM Tris-Cl, pH 6.8; 2% SDS (vol/vol); 10% glycerol (vol/vol); 5% […] (vol/vol); and 0.01% bromophenol blue (vol/vol), and loaded on SDS-PAGE for protein analysis. Protein extraction in cells was performed on ice using total protein extraction buffer: 20 mM Tris pH 7.5, 137 mM NaCl, 100 mM NaF, 10% glycerol, 1% NP40, 1 mM PMSF and protease inhibitor cocktail (Sigma). For normal and tumor tissues, sEcad was extracted in an aqueous solution (PBS) and not in the protein extraction buffer. Protein concentration was measured using a BCA Protein Assay Kit (Pierce). […] Western blot images were captured using HP Scanjet G4050 and analyzed relative to G3PDH or actin using NIH Scion Image.

The subject of series [12] is MDA-MB-231 and MCF-7 breast cancer cells. Kind of series: Matrigel invasion of breast cancer cells. The series is classed as cell-based, human. As to conditions: MCF-7 cells, 24 h, equimolar concentrations. On the procedure: as §1, with “After 22 h, cells on the top were removed using a cotton swab.” left out
The test system of series [13] is HER1-4. Kind of series: Western blot of HER phosphorylation in breast cancer cells. The series is classed as cell-based, human. The settings on record: MCF-7 and SKBR3 cells, 26 h after stimulation.
From the text: as §2
Immunoprecipitation assays were carried out by harvesting tissues or cells with immunoprecipitation lysis buffer (20 mM Tris-HCl, pH 7.5; 137 mM NaCl; 100 mM NaF; 10% glycerol (vol/vol); 1% (vol/vol) Nonidet P-40; 1 mM PMSF and protease inhibitor cocktail (Sigma)). After brief sonication, lysates were cleared by centrifugation at 4° C. […] Western blot images were captured using HP Scanjet G4050 and analyzed relative to G3PDH or actin using NIH Scion Image. […]

Series [14] relates to ERK1/2, PI3K/Akt, mTOR, p70S6K, 4EBP1. The series is described as follows: Western blot of downstream MAPK-PI3K/Akt/mTOR signaling in breast cancer cell lines. It is filed as cell-based, human. An excerpt:
We speculated that this effect may be mediated by molecular abnormalities in signaling pathways that promote cell growth downstream of HERs. Specifically, the lipid kinase phosphoinositide-3-kinase (PI3K) and the protein-serine/threonine kinases Akt, and mTOR signaling pathways are important mediators of HER receptor signaling and are causally involved in breast and other malignancies (Schmelzle and Hall, Cell 103:253-262, 2000). […] As the p70S6 kinase and eIF4E binding protein 1 (4EBP1) are among the most well characterized targets of mTOR (Schmelzle and Hall, Cell 103:253-262, 2000), we next studied the phosphorylation of p70S6K at Thr-389 and 4EBP1 at Thr-37 by western blotting.
Immunoprecipitation assays were carried out by harvesting tissues or cells with immunoprecipitation lysis buffer (20 mM Tris-HCl, pH 7.5; 137 mM NaCl; 100 mM NaF; 10% glycerol (vol/vol); 1% (vol/vol) Nonidet P-40; 1 mM PMSF and protease inhibitor cocktail (Sigma)). After brief sonication, lysates were cleared by centrifugation at 4° C. Supernatants were precleared and incubated with EGFR/HER1, HER2, HER3, HER4 or E-cadherin ectodomain-specific antibodies for 4 h and protein A/G plus agarose beads (Santa Cruz, sc-2003) for 2 h at 4° C. The immunocomplexes were washed three times, boiled in sample buffer (60 mM Tris-Cl, pH 6.8; 2% SDS (vol/vol); 10% glycerol (vol/vol); 5% […] (vol/vol); and 0.01% bromophenol blue (vol/vol), and loaded on SDS-PAGE for protein analysis. Protein extraction in cells was performed on ice using total protein extraction buffer: 20 mM Tris pH 7.5, 137 mM NaCl, 100 mM NaF, 10% glycerol, 1% NP40, 1 mM PMSF and protease inhibitor cocktail (Sigma). For normal and tumor tissues, sEcad was extracted in an aqueous solution (PBS) and not in the protein extraction buffer. Protein concentration was measured using a BCA Protein Assay Kit (Pierce). […] Western blot images were captured using HP Scanjet G4050 and analyzed relative to G3PDH or actin using NIH Scion Image. […]

[15] abbreviates: PAM212 skin SCC cells, HER inhibitors.
The mark [16] stands for this setting: PAM212 cells, PI3K or MEK inhibitor 20 μM.

As for `CS(=O)(=O)CCNCc1ccc(-c2ccc3ncnc(Nc4ccc(OCc5cccc(F)c5)c(Cl)c4)c3c2)o1` [Lapatinib], in series [1] (setting [15]), the sEcad-induced migration entry is “effectively inhibited sEcad-induced proliferation, migration and invasion”. Besides, the sEcad-induced invasion entry in series [2] (setting [15]) is “effectively inhibited sEcad-induced proliferation, migration and invasion”. Besides, in [3], the apoptosis result is listed as “induced apoptosis” and the survivin expression entry is “markedly reduced survivin expression”. In addition, the sEcad-induced proliferation result in [4] (setting [15]) was “effectively inhibited sEcad-induced proliferation, migration and invasion”. Moreover, in [5], the “sEcad-induced HER1 phosphorylation” value was “significantly down-regulated” and the “sEcad-induced HER2 phosphorylation (pHER2)” value was “minimal changes”. The phospho-IGF-1R levels result in series [5] (in the presence of sEcad, compared to corresponding controls) is “did not alter”. In addition, the “basal and sEcad-induced BrdU incorporation” value in series [6] (breast cancer cells, Canertinib 1 μM, Lapatinib 5 μM, Gefitinib 5 μM) is “significantly reduced both basal and sEcad-induced BrdU incorporation”. For the same molecule, in series [7] (PAM212 cells), the “sEcad-induced phosphorylation of 4EBP1” value was “minimal changes”; the “sEcad-induced phosphorylation of ERK1/2, Akt and p70S6K” value is “significantly down-regulated”; the “sEcad-induced phosphorylation of PI3K” value is “minimal changes”. The “survivin expression levels in tumors” value in series [8] is given as “marked inhibition of survivin expression levels”.
For `COc1cccc(-c2cc(=O)c3ccccc3o2)c1N` [PD98059], the sEcad-induced migration result in series [1] (setting [16]) is reported as “blocked”. In addition, the sEcad-induced invasion result in series [2] (setting [16]) was “blocked”. Also, the “sEcad-induced PAM212 proliferation” value in series [4] (PAM212 cells, inhibitor 20 μM) was “less significant effects”. Besides, in series [7] (PAM212 cells, inhibitor 20 μM), the “Akt phosphorylation by sEcad in the presence of the inhibitor” value is “enhanced” and the ERK1/2 phosphorylation result was “decreased ERK1/2 phosphorylation”. In addition, the mTOR/p70S6K/4EBP1 phosphorylation entry in series [7] (PAM212 cells, inhibitor 20 μM, even in the absence of rmEcad/Fc) is “increased”. Besides, the “sEcad-induced activation of MMP-2 and MMP-9” value in series [9] is “significantly inhibited sEcad-induced activation of MMP-2 and MMP-9”.
As for “rhEcad/Fc: Recombinant human E-cadherin Fc chimera; extracellular domain residues 155-707 fused to human IgG1 Fc, 6x histidine-tagged”, in [10], the migration result was “significantly increased proliferation, migration and invasion”. The BrdU incorporation result in series [6] (10 and 20 μg/mL, MCF-7, SKBR3 and MDA-MB-231) was “significantly increased”. In addition, the proliferation entry in [6] (MCF-7 cells, 24 h, equimolar concentrations) is “significantly increased proliferation, migration and invasion”. In addition, the “phosphorylated p70S6K (Thr-389) and 4EBP1 (Thr-37) levels” value is listed as “higher” in series [7] (PAM212, CC4A cells versus untreated controls) and “higher” in series [14] (MCF-7, SKBR3 cells versus untreated controls). The “receptors interacting with sEcad” value is given as “HER1-4-sEcad” in [11] (MCF-7 cells (E-cadherin positive)), “HER1-sEcad” in series [11] (MDA-MB-231 cells (E-cadherin negative)) and “HER1-2-sEcad” in series [11] (SKBR3 cells (E-cadherin negative)). In addition, the invasion result in [12] is “significantly increased proliferation, migration and invasion”. In addition, the HER1-4 phosphorylation entry in [13] is recorded as “notably increased”. Also, the “ERK1/2, PI3K/Akt and mTOR activation” value in [14] (MCF-7 and SKBR3 cells) was “activation of ERK1/2, PI3K/Akt and mTOR”. Besides, in series [14] (MDA-MB-231 TNBC cells), the Akt activation result is “activation”.
